Assay results: ChEMBL document CHEMBL1201862, “PubChem BioAssay data set” (2004)
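A five-concentration, 48-hour dose response in 96-well plates underlies each endpoint, interpolated linearly between surrounding concentrations. GI50 = concentration required for 50% inhibition of growth.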 Activity calls are given as the source filed them. Cut-off read from the data, not from the text of the source: active = GI50 up to about 1.1 µM and inactive = higher.

Assays:
Test in all cases: growth of human tumour cells (NCI), 48 h
A549 = tested on: A549
CCRF-CEM = tested on: CCRF-CEM
HCC 2998 = tested on: HCC 2998
HOP-62 = tested on: HOP-62
M14 = tested on: M14
MOLT-4 = tested on: MOLT-4
Malme-3M = tested on: Malme-3M
NCI-H226 = tested on: NCI-H226
RPMI-8226 = tested on: RPMI-8226
SF-295 = tested on: SF-295
SK-MEL-28 = tested on: SK-MEL-28
SK-OV-3 = tested on: SK-OV-3
SNB-19 = tested on: SNB-19
SNB-75 = tested on: SNB-75
SW-620 = tested on: SW-620
U-251 = tested on: U-251
UACC-62 = tested on: UACC-62
NCI-H522 = tested on: NCI-H522

Row | SMILES | GI50 (A549) | GI50 (CCRF-CEM) | GI50 (HCC 2998) | GI50 (HOP-62) | GI50 (M14) | GI50 (MOLT-4) | GI50 (Malme-3M) | GI50 (NCI-H226) | GI50 (RPMI-8226) | GI50 (SF-295) | GI50 (SK-MEL-28) | GI50 (SK-OV-3) | GI50 (SNB-19) | GI50 (SNB-75) | GI50 (SW-620) | GI50 (U-251) | GI50 (UACC-62) | GI50 (NCI-H522)
1 | Cc1cc(C)n(-c2ccnc3cc(Cl)ccc23)n1 | > 100 µM (inactive) | > 100 µM (inactive) | > 100 µM (inactive) | > 100 µM (inactive) | > 100 µM (inactive) | > 100 µM (inactive) | > 100 µM (inactive) | > 100 µM (inactive) | > 100 µM (inactive) | > 100 µM (inactive) | > 100 µM (inactive) | > 100 µM (inactive) | > 100 µM (inactive) | > 100 µM (inactive) | > 100 µM (inactive) | > 100 µM (inactive) | > 100 µM (inactive) | 
2 | COC1(OC)CC2C(=O)N(Cc3ccccc3)C1CC2S(=O)(=O)c1ccccc1 (stereo not given) | > 100 µM (inactive) | > 100 µM (inactive) |  | > 100 µM (inactive) | > 100 µM (inactive) | > 100 µM (inactive) | > 100 µM (inactive) | > 100 µM (inactive) | > 100 µM (inactive) | > 100 µM (inactive) | > 100 µM (inactive) | > 100 µM (inactive) | > 100 µM (inactive) | > 100 µM (inactive) | > 100 µM (inactive) | > 100 µM (inactive) | > 100 µM (inactive) | > 100 µM (inactive)
3 | Cc1ccc(NC(=S)SCCC(=O)O)cc1 | > 100 µM (inactive) | > 100 µM (inactive) | > 100 µM (inactive) | > 100 µM (inactive) | > 100 µM (inactive) | > 100 µM (inactive) |  | > 100 µM (inactive) | > 100 µM (inactive) | > 100 µM (inactive) | > 100 µM (inactive) |  | > 100 µM (inactive) |  | > 100 µM (inactive) | > 100 µM (inactive) |  | > 100 µM (inactive)
4 | CCOc1ccc(NC2=NC(=O)C(CC(=O)Nc3ccccc3[N+](=O)[O-])S2)cc1 (stereo not given) | > 100 µM (inactive) | > 100 µM (inactive) | > 100 µM (inactive) |  | > 100 µM (inactive) | > 100 µM (inactive) | > 100 µM (inactive) | > 100 µM (inactive) | > 100 µM (inactive) | > 100 µM (inactive) | > 100 µM (inactive) |  | > 100 µM (inactive) | > 100 µM (inactive) | > 100 µM (inactive) | > 100 µM (inactive) | 94 µM (inactive) | > 100 µM (inactive)
5 | CCNC1C2(CCCCC2)NC(=O)C12CCCCC2 (stereo not given) | > 100 µM (inactive) | > 100 µM (inactive) | > 100 µM (inactive) | > 100 µM (inactive) | > 100 µM (inactive) | > 100 µM (inactive) | > 100 µM (inactive) | > 100 µM (inactive) | > 100 µM (inactive) | > 100 µM (inactive) | > 100 µM (inactive) | > 100 µM (inactive) |  | > 100 µM (inactive) | > 100 µM (inactive) | > 100 µM (inactive) | > 100 µM (inactive) | 
6 | CCC12C=CCN3CCC4(C(=C(C(=O)OC)C1)Nc1ccccc14)[C@H]32 (stereo not given in full) | 34.7 µM (inactive) | 22.2 µM (inactive) | 33.3 µM (inactive) |  | 21.6 µM (inactive) | 26.7 µM (inactive) | 42.4 µM (inactive) | 31.8 µM (inactive) |  | 28.3 µM (inactive) | 41.7 µM (inactive) | 21.8 µM (inactive) | 26.6 µM (inactive) | 22 µM (inactive) | 26 µM (inactive) |  | 21.3 µM (inactive) | 22.1 µM (inactive)
7 | O=C(NCCNCCO)N/N=C/c1ccccc1 | > 100 µM (inactive) | > 100 µM (inactive) |  |  | > 100 µM (inactive) | > 100 µM (inactive) | > 100 µM (inactive) | > 100 µM (inactive) |  | > 100 µM (inactive) | > 100 µM (inactive) | > 100 µM (inactive) | > 100 µM (inactive) | > 100 µM (inactive) | > 100 µM (inactive) | > 100 µM (inactive) | > 100 µM (inactive) | > 100 µM (inactive)
8 | CCC12C=CCN3CCC4(c5cc(C6(C(=O)OC)CCCCCc7c6[nH]c6ccccc76)c(OC)cc5N(C)C4C(O)(C(=O)OC)C1OC(C)=O)C32 (stereo not given) | 3.02 µM (inactive) | 1.97 µM (inactive) | 2.04 µM (inactive) | 3.72 µM (inactive) | 2.64 µM (inactive) | 2.14 µM (inactive) | 1.87 µM (inactive) | 2.64 µM (inactive) | 2.47 µM (inactive) | 1.91 µM (inactive) | 2.23 µM (inactive) |  | 3.15 µM (inactive) | 2.3 µM (inactive) | 3.3 µM (inactive) | 2.08 µM (inactive) | 1.64 µM (inactive) | 
9 | CO[C@@]12CC(=O)/C(=C(O)\C=C\c3ccccc3)C(=O)[C@]1(OC)Cc1ccccc1O2 | 25.7 µM (inactive) | 22.4 µM (inactive) | 22.3 µM (inactive) | 21.6 µM (inactive) | 28.1 µM (inactive) | 29.7 µM (inactive) | 91 µM (inactive) | 22.5 µM (inactive) |  | 29.8 µM (inactive) | 22.4 µM (inactive) | 54 µM (inactive) | 30.1 µM (inactive) | 77.1 µM (inactive) | 31.3 µM (inactive) | 21.1 µM (inactive) | 21.9 µM (inactive) | 29.9 µM (inactive)
10 | O=c1cccccc1NCCNc1cccccc1=O | > 100 µM (inactive) | > 100 µM (inactive) |  | > 100 µM (inactive) | > 100 µM (inactive) | > 100 µM (inactive) | 13.9 µM (inactive) | > 100 µM (inactive) | > 100 µM (inactive) | > 100 µM (inactive) |  | > 100 µM (inactive) | > 100 µM (inactive) | > 10 µM (inactive) | > 100 µM (inactive) | > 100 µM (inactive) | > 100 µM (inactive) | > 100 µM (inactive)
11 | CCOC(=O)NC(=O)c1cn(C2OC(COC(=O)CCCCCCCCC(=O)OCC3OC(n4cc(C(=O)NC(=O)OCC)c(=O)[nH]c4=O)C4OC(C)(C)OC34)C3OC(C)(C)OC32)c(=O)[nH]c1=O (stereo not given) | 90.4 µM (inactive) | 30.1 µM (inactive) | 57.3 µM (inactive) | > 100 µM (inactive) | 63.4 µM (inactive) | 35.6 µM (inactive) | > 100 µM (inactive) | 77.4 µM (inactive) | 44 µM (inactive) | > 100 µM (inactive) | 84.1 µM (inactive) |  | 51.6 µM (inactive) | 56.9 µM (inactive) | 35.8 µM (inactive) |  | > 100 µM (inactive) | 
12 | O=C(O)C1C2CCC(O2)C1C(=O)N1CCCCC1 (stereo not given) | 22.8 µM (inactive) |  | 4.11 µM (inactive) | 12.7 µM (inactive) | 12.7 µM (inactive) | 5.06 µM (inactive) | 10.6 µM (inactive) | 5.09 µM (inactive) | 3.26 µM (inactive) | 10.4 µM (inactive) | 5.83 µM (inactive) | 15.7 µM (inactive) | 15.5 µM (inactive) | 4.51 µM (inactive) | 3.43 µM (inactive) | 4.2 µM (inactive) | 5.26 µM (inactive) | 4.88 µM (inactive)
13 | OCc1ccc(C2CC(c3ccco3)=NN2c2ccccc2)o1 (stereo not given) | > 100 µM (inactive) | > 100 µM (inactive) |  | > 100 µM (inactive) | > 100 µM (inactive) | > 100 µM (inactive) | > 100 µM (inactive) | > 100 µM (inactive) | > 100 µM (inactive) | > 100 µM (inactive) | > 100 µM (inactive) |  | > 100 µM (inactive) | 20 µM (inactive) | > 100 µM (inactive) | > 100 µM (inactive) | > 100 µM (inactive) | > 100 µM (inactive)
14 | CCOC(=O)NC(=O)c1cn(CCOC(=O)CCCCCCCCC(=O)OCCn2cc(C(=O)NC(=O)OCC)c(=O)[nH]c2=O)c(=O)[nH]c1=O | > 100 µM (inactive) | > 100 µM (inactive) | > 100 µM (inactive) | > 100 µM (inactive) | > 100 µM (inactive) | > 100 µM (inactive) | > 100 µM (inactive) | > 100 µM (inactive) | > 100 µM (inactive) | > 100 µM (inactive) | > 100 µM (inactive) |  | > 100 µM (inactive) | > 100 µM (inactive) | > 100 µM (inactive) |  | > 100 µM (inactive) | 
15 | COC(=O)C1=C(C)N(NC(=O)c2cccc(Cl)c2)C(C)(O)C12CCOC2=O (stereo not given) | > 100 µM (inactive) |  | > 100 µM (inactive) | > 100 µM (inactive) | > 100 µM (inactive) | > 100 µM (inactive) | > 100 µM (inactive) | > 100 µM (inactive) | > 100 µM (inactive) | > 100 µM (inactive) | > 100 µM (inactive) | > 100 µM (inactive) | > 100 µM (inactive) | > 100 µM (inactive) | > 100 µM (inactive) | > 100 µM (inactive) | > 100 µM (inactive) | > 100 µM (inactive)
16 | COc1cc(C(C#N)NNC(=O)c2ccccc2O)ccc1O (stereo not given) | 0.662 µM (active) | 2.08 µM (inactive) |  | 4.78 µM (inactive) | 2.79 µM (inactive) | 6.15 µM (inactive) | 9.4 µM (inactive) | 2.05 µM (inactive) | 9.64 µM (inactive) | 3.28 µM (inactive) | 30.6 µM (inactive) | 3.18 µM (inactive) |  | 0.356 µM (active) | 8.32 µM (inactive) | 0.843 µM (active) | 0.887 µM (active) | 3.14 µM (inactive)
17 | Cc1c(O)c(O)cc[n+]1C1OC(CO)C(O)C1O (stereo not given) | > 100 µM (inactive) | > 100 µM (inactive) | > 100 µM (inactive) |  | > 100 µM (inactive) |  | > 100 µM (inactive) | > 100 µM (inactive) | > 100 µM (inactive) |  | > 100 µM (inactive) | > 100 µM (inactive) | > 100 µM (inactive) | > 100 µM (inactive) | > 100 µM (inactive) | > 100 µM (inactive) | > 100 µM (inactive) | > 100 µM (inactive)
